{"source": "patent US20200377561A1", "about": "“ANTIMICROBIAL PEPTIDES AND METHODS OF TREATING GRAM-NEGATIVE PATHOGEN INFECTIONS: POLAR AND NON-POLAR FACE ANALOGS” (THE REGENTS OF THE UNIVERSITY OF COLORADO, a body corporate, priority 2017, published 2020)", "assay_type_in_all_cases": "cell-based", "key": {"[1]": {"test_system": "Staphylococcus aureus ATCC 29213", "details": "cation-adjusted Mueller Hinton broth, 37° C., 16-20 hours"}, "[2]": {"test_system": "Pseudomonas aeruginosa ATCC 27853", "details": "cation-adjusted Mueller Hinton broth, 37° C., 16-20 hours"}, "[3]": {"test_system": "Acinetobacter baumannii NCTC 13420", "details": "cation-adjusted Mueller Hinton broth, 37° C., 16-20 hours"}, "Human erythrocytes": {"test_system": "Human erythrocytes", "assay": "Haemolysis assay using human blood", "details": "human erythrocytes, 37° C., 1 hour"}, "[4]": {"test_system": "Acinetobacter baumannii NCTC 13420", "details": "CA-MHB supplemented with 20% human serum (v/v)", "method": "Bacterial strains were acquired from the American Type Culture Collection (ATCC, Virginia, USA) and the National Collection of Type Cultures (NCTC, Public Health England, Salisbury, UK). Minimum Inhibitory Concentration (MIC) of peptides versus gram-negative strains-Acinetobacter baumannii NCTC 13420, and Pseudomonas aeruginosa ATCC 27853 and gram-positive strain Staphylococcus aureus ATCC 29213, were determined by broth microdilution as per the guidelines of the Clinical and Laboratory Standards Institute (“Methods for Dilution Antimicrobial Susceptibility Tests for Bacteria That Grow Aerobically”; Approved Standard-Ninth Edition. CLSI document M07-A9, 2012). Peptides were dissolved in sterile distilled water, which was also used as the drug-free vehicle control when determining peptide MICs. Prior to use in the MIC protocol, bacterial strains were grown on Mueller Hinton agar at 37° C. in an ambient atmosphere. […] A fixed inoculum of the test microorganism (5×10^5 cells/mL) is also added to the plate. The MIC is determined as the lowest concentration of compound that inhibits visible bacterial growth following incubation at 37° C. for 16-20 hours. A difference in MIC of two-fold between experimental replicates is considered to be within the normal variability of this protocol. […]"}}, "note": "Peptide text beside a SMILES is read from it.", "data": [{"smiles": "CC(=O)N[C@H](C)C(=O)N[C@H](CC(C)C)C(=O)N[C@H](CCCCN)C(=O)N[C@H](CCCCN)C(=O)N[C@H](CC(C)C)C(=O)N[C@H](CC(C)C)C(=O)N[C@H](CCCCN)C(=O)N[C@H](CCCCN)C(=O)N[C@H](CC(C)C)C(=O)N[C@H](CO)C(=O)N[C@H](CO)C(=O)N[C@H](C)C(=O)N[C@H](CCCCN)C(=O)N[C@H](CO)C(=O)N[C@H](CO)C(=O)N[C@H](CCCCN)C(=O)N[C@H](CC(C)C)C(=O)N[C@H](CO)C(=O)N[C@H](CO)C(=O)N[C@H](CC(C)C)C(=O)N[C@H](CC(C)C)C(=O)N[C@H](CCCCN)C(=O)N[C@H](CCCCN)C(=O)N[C@H](CC(C)C)C(=O)N[C@H](CCCCN)C(=O)N[C@H](CCCCN)C(N)=O", "note": "[compound 25] (HELM PEPTIDE1{[ac].[dA].[dL].[dK].[dK].[dL].[dL].[dK].[dK].[dL].[dS].[dS].[dA].[dK].[dS].[dS].[dK].[dL].[dS].[dS].[dL].[dL].[dK].[dK].[dL].[dK].[dK].[am]}$$$$V2.0)", "values": [{"measurement": "S. Aureus ATCC22213 MIC", "setting": "[1]", "value": 128, "unit": "µg/mL"}, {"measurement": "P. aeruginosa ATCC27853 MIC", "setting": "[2]", "value": 4, "unit": "µg/mL"}, {"measurement": "Antimicrobial Activity MIC A. baumannii NCTC13420", "setting": "[3]", "value": 2, "unit": "µg/mL"}, {"measurement": "Haemolysis HC50", "setting": "Human erythrocytes", "value": ">2000", "unit": "µg/mL"}, {"measurement": "Antimicrobial Activity MIC A. baumannii NCTC13420 plus 20% SERUM", "setting": "[4]", "value": 4, "unit": "µg/mL"}]}]}
